From patent US11638706B2, “Methods for treating Huntington's disease” (PTC Therapeutics, Inc., priority 2015, dated 2023) come the findings set out here.

pIC50: −log10 of the molar value.

In the test the test system is Huntingtin protein (HTT). Put plainly: Endogenous Huntingtin Protein Assay (MSD electrochemiluminescence ELISA; MW1 or MAB2166 capture, #5656S detection). The format is cell-based, human. On the procedure: The Endogenous Huntingtin Protein assay used in Example 2 was developed using the Best Pair antibodies identified in Table 2, providing highly sensitive, high-throughput detection assays for polyglutamine-expanded (mHTT) and total human HTT in multiple cell systems. The platform used for the assay is the ELISA-based Meso Scale Discovery (MSD) electrochemiluminescence assay platform.
Meso Scale Discovery (MSD) 96-well or 384-well plates were coated overnight at 4° C. with MW1 (expanded polyglutamine) or MAB2166 monoclonal antibody (for capture) at a concentration of 1 μg/mL in PBS (30 μL per well). Plates were then washed three times with 300 μL wash buffer (0.05% Tween-20 in PBS) and blocked (100 μL blocking buffer; 5% BSA in PBS) for 4-5 hours at room temperature with rotational shaking and then washed three times with wash buffer.
Samples (25 μL) were transferred to the antibody-coated MSD plate and incubated overnight at 4° C. After removal of the lysates, the plate was washed three times with wash buffer, and 25 μL of #5656S (Cell signaling; rabbit monoclonal) secondary antibody (diluted to 0.25 μg/mL in 0.05% Tween-20 in blocking buffer) was added to each well and incubated with shaking for 1 Hour at room temperature. Following incubation with the secondary antibody, the wells were rinsed with wash buffer after which 25 μL of goat anti-rabbit SULFO TAG secondary detection antibody (required aspect of the MSD system) (diluted to 0.25 μg/mL in 0.05% Tween-20 in blocking buffer) was added to each well and incubated with shaking for 1 hour at room temperature. After rinsing three times with wash buffer, 150 μL of read buffer T with surfactant (MSD) were added to each empty well, and the plate was imaged on a SI 6000 imager (MSD) according to manufacturers' instructions provided for 96- or 384-well plates.
As a reminder, the pIC50 is −log10 of the IC50, conventionally taken in molar units. Lower therefore signals a high IC50. In turn, “3-[2-methoxy-4-(1H-pyrazol-1-yl)phenyl]-6-[(2,2,6,6-tetramethylpiperidin-4-yl)oxy]pyridazine [Cpd 447]” had a negative-log IC50 (pIC50) of 5.05 to 5.52.
“5-(3,5-dimethyl-1H-pyrazol-4-yl)-2-{6-[(2,2,6,6-tetramethylpiperidin-4-yl)oxy]pyridazin-3-yl}phenol [Cpd 451]” had a pIC50 of 5.05 to 5.52.
Then “5-(5-methyl-1H-pyrazol-4-yl)-2-{6-[(2,2,6,6-tetramethylpiperidin-4-yl)oxy]pyridazin-3-yl}phenol [Cpd 418]”, with not below 7.00; and `CN(c1ccc(-c2ccc3nccn3c2)nn1)C1CC(C)(C)NC(C)(C)C1` [Cpd 16, 6-(imidazo[1,2-a]pyridin-6-yl)-N-methyl-N-(2,2,6,6-tetramethylpiperidin-4-yl)pyridazin-3-amine], with 5.05 to 5.52.
Consider `CN(c1ccc(-c2cc3ccccc3cc2O)nn1)C1CC(C)(C)NC(C)(C)C1` [Cpd 26, 3-(6-(methyl(2,2,6,6-tetramethylpiperidin-4-yl)amino)pyridazin-3-yl)naphthalen-2-ol], for which the pIC50 was 6.30 to 7.00.
As to `CC1(C)CC(Oc2ccc(-c3cc4ccccc4cc3O)nn2)CC(C)(C)N1` [Cpd 31, 3-(6-((2,2,6,6-tetramethylpiperidin-4-yl)oxy)pyridazin-3-yl)naphthalen-2-ol], the negative logarithm of the IC50 (pIC50) is 6.30 to 7.00.
As to `CN(c1ccc(-c2ccc(C#N)cc2O)nn1)C1CC(C)(C)NC(C)(C)C1` [Cpd 39, 3-hydroxy-4-(6-(methyl(2,2,6,6-tetramethylpiperidin-4-yl)amino)pyridazin-3-yl)benzonitrile], the negative logarithm of the IC50 (pIC50) was 5.05 to 5.52.
For the compound `Cc1cnc(-c2ccc(-c3ccc(N(C)C4CC(C)(C)NC(C)(C)C4)nn3)c(O)c2)o1` [Cpd 44, 5-(5-methyl-oxazol-2-yl)-2-(6-(methyl-(2,2,6,6-tetramethylpiperidin-4-yl)-amino)-pyridazin-3-yl)phenol], the negative logarithm of the IC50 (pIC50) is not below 7.00.
Turning to `CN(c1ccc(-c2ccc(-n3ccnc3)cc2O)nn1)C1CC(C)(C)NC(C)(C)C1` [Cpd 46, 5-(1H-imidazol-1-yl)-2-(6-(methyl(2,2,6,6-tetramethylpiperidin-4-yl)amino)pyridazin-3-yl)phenol], the pIC50 is not below 7.00.
Then `CN(c1ccc(-c2ccc(-n3cc(N)cn3)cc2O)nn1)C1CC(C)(C)NC(C)(C)C1` [Cpd 47, 5-(4-amino-1H-pyrazole-1-yl)-2-(6-(methyl(2,2,6,6-tetramethylpiperidin-4-yl)amino)pyridazin-3-yl)phenol], with 6.30 to 7.00; and `CN(c1ccc(-c2ccc(-c3cn[nH]c3)cc2O)nn1)C1CC(C)(C)NC(C)(C)C1` [Cpd 48, 2-(6-(methyl(2,2,6,6-tetramethylpiperidin-4-yl)amino)pyridazin-3-yl)-5-(1H-pyrazol-4-yl)phenol], with not below 7.00; and `CN(c1ccc(-c2ccc(-c3cnn(C)c3)cc2O)nn1)C1CC(C)(C)NC(C)(C)C1` [Cpd 51, 2-(6-(methyl(2,2,6,6-tetramethylpiperidin-4-yl)amino)pyridazin-3-yl)-5-(1-methyl-1H-pyrazol-4-yl)phenol], with not below 7.00.
Compound `CC1(C)CC(Oc2ccc(-c3ccc(-n4cccn4)cc3O)nn2)CC(C)(C)N1` [Cpd 63, 5-1H-pyrazol-1-yl-2-(6-(2,2,6,6-tetramethylpiperidin-4-yl-oxy)-pyridazin-3-yl)phenol] gave a negative-log IC50 (pIC50) not below 7.00.
For the compound `CC1(C)CC(Oc2ccc(-c3ccc(-c4cn[nH]c4)cc3O)nn2)CC(C)(C)N1` [Cpd 64, 5-(1H-pyrazol-4-yl)-2-(6-((2,2,6,6-tetramethylpiperidin-4-yl)oxy)pyridazin-3-yl)phenol], the pIC50 is not below 7.00.
Then `CN(c1ccc(-c2ccc(-c3ccnc(O)c3)cc2O)nn1)C1CC(C)(C)NC(C)(C)C1` [Cpd 170, 4-(3-hydroxy-4-(6-(methyl(2,2,6,6-tetramethylpiperidin-4-yl)amino)pyridazin-3-yl)phenyl)pyridin-2-ol], with not below 7.00; and `CC1(C)CC(Oc2ccc(-c3ccc(-c4ccnc(O)c4)cc3O)nn2)CC(C)(C)N1` [Cpd 176, 4-(3-hydroxy-4-(6-((2,2,6,6-tetramethylpiperidin-4-yl)oxy)pyridazin-3-yl)phenyl)pyridin-2-ol], with not below 7.00; and `Oc1cc(-c2cn[nH]c2)ccc1-c1ccc(N2C[C@H]3CNC[C@H]3C2)nn1` [Cpd 200, 2-(6-((3aR,6aS)-hexahydropyrrolo[3,4-c]pyrrol-2(1H)-yl)pyridazin-3-yl)-5-(1H-pyrazol-4-yl)phenol], with not below 7.00.
The compound `CN(c1ccc(-c2cc3cccnc3cc2O)nn1)C1CC(C)(C)NC(C)(C)C1` [Cpd 207, 6-(6-(methyl(2,2,6,6-tetramethylpiperidin-4-yl)amino)pyridazin-3-yl)quinolin-7-ol] had a pIC50 of 6.30 to 7.00.
As for `CN(c1ccc(-c2cc3cnccc3cc2O)nn1)C1CC(C)(C)NC(C)(C)C1` [Cpd 212, 7-(6-(methyl(2,2,6,6-tetramethylpiperidin-4-yl)amino)pyridazin-3-yl)isoquinolin-6-ol], the figure is not below 7.00; as for `CN(c1ccc(-c2cc3ccncc3cc2O)nn1)C1CC(C)(C)NC(C)(C)C1` [Cpd 218, 6-(6-(methyl(2,2,6,6-tetramethylpiperidin-4-yl)amino)pyridazin-3-yl)isoquinolin-7-ol], not below 7.00.
As for `CN(c1ccc(-c2cc3cncnc3cc2O)nn1)C1CC(C)(C)NC(C)(C)C1` [Cpd 258, 6-(6-(methyl(2,2,6,6-tetramethylpiperidin-4-yl)amino)pyridazin-3-yl)quinazolin-7-ol], the figure is 6.30 to 7.00; as for `COc1cc(-c2cn[nH]c2)ccc1-c1nnc(N(C)C2CC(C)(C)NC(C)(C)C2)s1` [Cpd 307], 6.30 to 7.00.
With `CN(c1nnc(-c2ccc(-c3cnn(C)c3)cc2O)s1)C1CC(C)(C)NC(C)(C)C1` [Cpd 315], the negative logarithm of the IC50 (pIC50) is not below 7.00.
Take `CN(c1nnc(-c2ccc(-c3ccn(C)c(=O)c3)cc2O)s1)C1CC(C)(C)NC(C)(C)C1` [Cpd 318]: the pIC50 was not below 7.00.
As for `CN(c1nnc(-c2ccc(-c3cn[nH]c3)c(F)c2F)s1)C1CC(C)(C)NC(C)(C)C1` [Cpd 348], the figure is not below 7.00.
In turn, `CN(c1nnc(-c2cc(F)c(-c3cn[nH]c3)cc2F)s1)C1CC(C)(C)NC(C)(C)C1` [Cpd 350] showed a pIC50 not below 7.00.
In the case of `CN(c1nnc(-c2c(F)cc(-c3cn[nH]c3)cc2F)s1)C1CC(C)(C)NC(C)(C)C1` [Cpd 352], the pIC50 was 6.30 to 7.00.
On to `CN(c1nnc(-c2ccc(-c3cn[nH]c3)cc2O)s1)C1CC(C)(C)NC(C)(C)C1` [Cpd 393], for which the pIC50 is not below 7.00.
Regarding `CN(c1ccc(-c2ccc(-c3cn[nH]c3)cc2O)nn1)C1C[C@H]2CC[C@@H](C1)N2` (stereo partly drawn) [Cpd 411, 2-{6-[(1R,5S)-8-azabicyclo[3.2.1]oct-3-yl(methyl)amino]pyridazin-3-yl}-5-(1H-pyrazol-4-yl)phenol], the pIC50 is not below 7.00.
`Oc1cc(-c2cn[nH]c2)ccc1-c1ccc(NC2C[C@H]3CC[C@@H](C2)N3)nn1` (stereo partly drawn) [Cpd 412, 2-[6-((1R,5S)-8-azabicyclo[3.2.1]oct-3-ylamino)pyridazin-3-yl]-5-(1H-pyrazol-4-yl)phenol] had a negative-log IC50 (pIC50) not below 7.00.
As for `CC1(C)CC(Nc2ccc(-c3ccc(-c4cn[nH]c4)cc3O)nn2)CC(C)(C)N1` [Cpd 413, 5-(1H-pyrazol-4-yl)-2-{6-[(2,2,6,6-tetramethylpiperidin-4-yl)amino]pyridazin-3-yl}phenol], the pIC50 was not below 7.00.
In turn, `Cn1cc(-c2ccc(-c3ccc(OC4CC(C)(C)NC(C)(C)C4)nn3)c(O)c2)cn1` [Cpd 414, 5-(1-methyl-1H-pyrazol-4-yl)-2-{6-[(2,2,6,6-tetramethylpiperidin-4-yl)oxy]pyridazin-3-yl}phenol] gave a pIC50 not below 7.00.
Consider `Oc1cc(-c2cn[nH]c2)ccc1-c1ccc(OC2C[C@H]3CC[C@@H](C2)N3)nn1` (stereo partly drawn) [Cpd 415, 2-[6-((1R,5S)-8-azabicyclo[3.2.1]oct-3-yloxy)pyridazin-3-yl]-5-(1H-pyrazol-4-yl)phenol], for which the negative-log IC50 (pIC50) is not below 7.00.
In turn, `Cc1[nH]ncc1-c1ccc(-c2ccc(N(C)C3CC(C)(C)NC(C)(C)C3)nn2)c(O)c1` [Cpd 416, 5-(5-methyl-1H-pyrazol-4-yl)-2-{6-[methyl(2,2,6,6-tetramethylpiperidin-4-yl)amino]pyridazin-3-yl}phenol] gave a pIC50 not below 7.00.
As for `CC1(C)CC(Oc2ccc(-c3ccc(-n4ccnc4)cc3O)nn2)CC(C)(C)N1` [Cpd 417, 5-(1H-imidazol-1-yl)-2-{6-[(2,2,6,6-tetramethylpiperidin-4-yl)oxy]pyridazin-3-yl}phenol], the figure is not below 7.00; as for `CN(c1ccc(-c2ccc(-n3cc([N+](=O)[O-])cn3)cc2O)nn1)C1CC(C)(C)NC(C)(C)C1` [Cpd 419, 2-{6-[methyl(2,2,6,6-tetramethylpiperidin-4-yl)amino]pyridazin-3-yl}-5-(4-nitro-1H-pyrazol-1-yl)phenol], not below 7.00.
Then `COc1cc(-n2cc([N+](=O)[O-])cn2)ccc1-c1ccc(N(C)C2CC(C)(C)NC(C)(C)C2)nn1` [Cpd 420, 6-[2-methoxy-4-(4-nitro-1H-pyrazol-1-yl)phenyl]-N-methyl-N-(2,2,6,6-tetramethylpiperidin-4-yl)pyridazin-3-amine], with not below 7.00.
